One assay concerns the target α1β2γ2 GABAA receptors (Homo sapiens (Human), UniProt P14867+P47870). The assay is described as follows: Patch clamp electrophysiology of recombinant α1β2γ2 GABAA receptors (Qpatch in Ltk cells). To be noted: 10 μM test article, potentiation of GABA EC20 (2 μM) current. It is filed as cell-based. The protocol:
Cellular electrophysiology is used to measure the pharmacological properties of our GABAA receptor modulators in heterologous cell systems. […] LTK cells are stably transfected with the α1β2γ2 subunits of the GABA receptor and CHO cells are transiently transfected with the α4β3δ subunits via the Lipofecatamine method. Cells were passaged at a confluence of about 50-80% and then seeded onto 35 mm sterile culture dishes containing 2 ml culture complete medium without antibiotics or antimycotics. Confluent clusters of cells are electrically coupled (Pritchett et al., Science, 1988, 242, 1306-1308).
Whole cell currents were measured with HEKA EPC-10 amplifiers using PatchMaster software or by using the high throughput QPatch platform (Sophion). […] In some cases 0.005% cremophor was also added. Intracellular (pipette) solution contained: KCl 130 mM, MgCl2 1 mM, Mg-ATP 5 mM, HEPES 10 mM, EGTA 5 mM, pH 7.2. […] For manual patch clamp recordings, cell culture dishes were placed on the dish holder of the microscope and continuously perfused (1 ml/min) with bath solution. […] For experiments using the QPatch system, cells were transferred as suspension to the QPatch system in the bath solution and automated whole cell recordings were performed.
Cells were voltage clamped at a holding potential of −80 mV. […]

Another assay relates to PTZ-treated mice. The assay is described as follows: Acute PTZ method (pentylenetetrazol-induced seizure assay). Format: in vivo. Conditions: Mus musculus, lowest dose significantly affecting latency to tonic seizures in PTZ-treated mice, PO, read-out: Anticonvulsive Effect Dose. The protocol:
The anticonvulsant effect of test compounds were assessed in a pentylenetetazol-induced seizure assay in mice similar to methods described in Giardina & Gasior (Curr Protoc Pharmacol. 2009). Male CD-1 mice were housed in groups of five under controlled conditions (temperature of 22±2° C. and 12:12 light-dark cycle, lights on at 8:00 am) and water and food were available ad libitum. The mice were housed for 1 week prior to behavioral testing, at which time they weighed 25-35 g. Pentylenetetrazol (PTZ, Sigma) was dissolved in sterile 0.9% saline at a concentration of 12 mg/mL concentration for subcutaneous administration. Test compounds were formulated and administered via oral gavage or intraperitoneal injection at a predetermined time-point (typically 30 or 60 minutes) prior to PTZ injection. […]
Mice were acclimated to the test room for at least 30 min before compound administration. […] Each mouse was continuously observed for 30 min and the following behaviors were recorded by observers blinded to the treatments: 1) latency to clonic convulsions that persist for 3 sec and followed by an absence of righting reflex 2) latency to tonic convulsions, characterized by the rigid extension of all four limbs that exceeded a 90 degree angle with the body 3) latency to death 4) number of clonic and tonic convulsions. […]

Assay [1] deals with rat brain cortical membranes ([35S]-TBPS binding, GABA receptor complex). Put plainly: Steroid inhibition of [35S]-TBPS binding. To be noted: in the presence of 5 μM GABA, read-out: 35S-TBPS Radioligand Displacement (IC50). The protocol:
TBPS binding assays using rat brain cortical membranes in the presence of 5 μM GABA has been described (Gee et al, J. Pharmacol. Exp. Ther. 1987, 241, 346-353; Hawkinson et al, Mol. Pharmacol. 1994, 46, 977-985; Lewin, A. H et al., Mol. Pharmacol. 1989, 35, 189-194).
Briefly, cortices are rapidly removed following decapitation of carbon dioxide-anesthetized Sprague-Dawley rats (200-250 g). The cortices are homogenized in 10 volumes of […] using a glass/teflon homogenizer and centrifuged at 1500×g for 10 min at 4° C. The resultant supernatants are centrifuged at 10,000×g for 20 min at 4° C. to obtain the P2 pellets. The P2 pellets are resuspended in 200 mM NaCl/50 mM Na—K phosphate pH 7.4 buffer and centrifuged at 10,000×g for 10 min at 4° C. This washing procedure is repeated twice and the pellets are resuspended in 10 volumes of buffer. Aliquots (100 μL) of the membrane suspensions are incubated with 3 nM [^35S]-TBPS and 5 μL aliquots of test drug dissolved in dimethyl sulfoxide (DMSO) (final 0.5%) in the presence of 5 μM GABA. The incubation is brought to a final volume of 1.0 mL with buffer. […] Following a 90 min incubation at room temp, the assays are terminated by filtration through glass fiber filters (Schleicher and Schuell No. 32) using a cell harvester (Brandel) and rinsed three times with ice-cold buffer. Filter bound radioactivity is measured by liquid scintillation spectrometry. Non-linear curve fitting of the overall data for each drug averaged for each concentration is done using Prism (GraphPad).
Various compounds are or can be screened to determine their potential as modulators of [^35S]-TBPS binding in vitro. These assays are or can be performed in accordance with the above discussed procedures.

The values below come from US11542297B2, “Compositions and methods for treating CNS disorders” (Sage Therapeutics, Inc., priority 2014, dated 2023).

Structures are written as SMILES.

Take `C[C@@]1(O)CC[C@@]2(C)[C@@H](CC[C@@H]3[C@@H]2CC[C@]2(C)[C@@H](C(=O)Cn4nnc5ccc(Cl)c(F)c54)CC[C@@H]32)C1` [Compound 113]: on α1β2γ2 GABAA receptors, the “GABA (α1β2γ2) Qpatch in Ltk, % efficacy at 10 μM” value is recorded as “B (“B” >100-500)”.

Take `Cc1nnn(CC(=O)[C@H]2CC[C@H]3[C@@H]4CC[C@@H]5C[C@](C)(O)CC[C@]5(C)[C@H]4CC[C@]23C)n1` [Compound 32]: in the assay on PTZ-treated mice, the minimal effective dose is not above 1 mg/kg.

With `C[C@@]1(O)CC[C@@]2(C)[C@H](CC[C@@H]3[C@@H]2CC[C@]2(C)[C@@H](C(=O)Cn4ccc(C#N)n4)CC[C@@H]32)C1` [Compound 24], the minimal effective dose in the assay with PTZ-treated mice lay within 1 to 5 mg/kg.

With `C[C@@]1(O)CC[C@@]2(C)[C@H](CC[C@@H]3[C@@H]2CC[C@]2(C)[C@@H](C(=O)Cn4cc(C#N)cn4)CC[C@@H]32)C1` [Compound 10, 1-(2-((3R,5R,8R,9S,10S,13S,14S,17S)-3-hydroxy-3,10,13-trimethylhexadecahydro-1H-cyclopenta[a]phenanthren-17-yl)-2-oxoethyl)-1H-pyrazole-4-carbonitrile], the IC50 in assay [1] is less than 10 nM.

Turning to `C[C@@]1(O)CC[C@@]2(C)[C@H](CC[C@@H]3[C@@H]2CC[C@]2(C)[C@@H](C(=O)Cn4nc5ccc(S(C)(=O)=O)cc5n4)CC[C@@H]32)C1` [Compound 104, 1-((3R,5R,8R,9S,10S,13S,14S,17S)-3-hydroxy-3,10,13-trimethylhexadecahydro-1H-cyclopenta[a]phenanthren-17-yl)-2-(5-(methylsulfonyl)-2H-benzo[d][1,2,3]triazol-2-yl)ethanone], the IC50 in assay [1] was less than 10 nM.

With `CC(C(=O)[C@H]1CC[C@H]2[C@@H]3CC[C@H]4C[C@](C)(O)CC[C@]4(C)[C@H]3CC[C@]12C)N1CCOCC1` (stereo partly shown) [Compound 155], the IC50 in assay [1] was more than 500 nM.

In the case of `C[C@H](C(=O)[C@H]1CC[C@H]2[C@@H]3CC[C@H]4C[C@](C)(O)CC[C@]4(C)[C@H]3CC[C@]12C)n1nnc2ccccc21` [Compound 100, (R)-2-(1H-benzo[d][1,2,3]triazol-1-yl)-1-((3R,5S,8R,9S,10S,13S,14S,17S)-3-hydroxy-3,10,13-trimethylhexadecahydro-1H-cyclopenta[a]phenanthren-17-yl)propan-1-one], the IC50 in assay [1] is more than 500 nM.

Turning to `CN(C)C(=O)c1cnn(CC(=O)[C@H]2CC[C@H]3[C@@H]4CC[C@H]5C[C@](C)(O)CC[C@]5(C)[C@H]4CC[C@]23C)c1` [Compound 86], the IC50 in assay [1] was less than 10 nM.

For `C[C@@H](C(=O)[C@H]1CC[C@H]2[C@@H]3CC[C@H]4C[C@](C)(O)CC[C@]4(C)[C@H]3CC[C@]12C)n1cc(C#N)cn1` [Compound 81, 1-((S)-1-((3R,5S,8R,9S,10S,13S,14S,17S)-3-hydroxy-3,10,13-trimethylhexadecahydro-1H-cyclopenta[a]phenanthren-17-yl)-1-oxopropan-2-yl)-1H-pyrazole-4-carbonitrile], in assay [1], the half-maximal inhibitory concentration (IC50) lay within 10 to 50 nM.

Regarding `C[C@@]1(O)CC[C@@]2(C)[C@H](CC[C@@H]3[C@@H]2CC[C@]2(C)[C@@H](C(=O)Cn4nc5ccc(OC(F)(F)F)cc5n4)CC[C@@H]32)C1` [Compound 106], the Emax at 10 µM on α1β2γ2 GABAA receptors (read-out: GABA (α1β2γ2) Qpatch in Ltk, % efficacy at 10 μM) lay within 100 to 500%.
